Common to all, as to assay: inhibition of tumour cell growth, NCI panel, 48 h
Experiment [1] deals with A498.
Experiment [2] concerns CCRF-CEM.
In experiment [3] the test system is HT-29.
Experiment [4] concerns Hs-578T.
For experiment [5], the system named is IGROV-1.
Experiment [6] concerns LOX IMVI.
Experiment [7] has as its system MCF7.
For experiment [8], the system named is MDA-MB-231.
For experiment [9], the system named is Malme-3M.
Experiment [10] deals with NCI-H522.
Experiment [11] relates to NCI/ADR-RES.
Experiment [12] concerns RXF 393.
Experiment [13] relates to SF-268.
The test system of experiment [14] is SF-295.
The test system of experiment [15] is SN12C.
For experiment [16], the system named is SNB-75.
In experiment [17] the test system is T47D.
For experiment [18], the system named is TK-10.
Experiment [19] has as its system U-251.
For experiment [20], the system named is UACC-62.

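Briefly, cells in 96-well plates were exposed to five compound concentrations for 48 h, and endpoints were estimated by linear interpolation. GI50 is the concentration that inhibits growth by half.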 Active and inactive are the calls of the source. Rule as the data show it: active = GI50 up to about 1.1 µM and inactive = higher.

`C[N+]1(C)[C@@H]2CC[C@H]1C[C@@H](OC(=O)C(CO)c1ccccc1)C2` (stereo not given in full) [ATROPINE METHYLBROMIDE]: the GI50 in experiment [1], in [2], in experiment [3], in experiment [4], in experiment [5] and in [6] was > 100 µM (inactive) in each case. In addition, the GI50 in experiment [7], in experiment [8], in experiment [9], in experiment [10], in experiment [11] and in [12] was > 100 µM (inactive) each time. Further, the GI50 in experiment [13], in experiment [14], in [15], in [16], in experiment [17] and in experiment [18] was > 100 µM (inactive) in each case. Moreover, the GI50 in experiment [19] and in experiment [20] was > 100 µM (inactive) each time.

On to `O=C(C1OC1c1ccc(Cl)cc1)C12CC3CC(CC(C3)C1)C2` (stereo not given), for which the GI50 was 23.7 µM (inactive) in experiment [1]; 19 µM (inactive) in experiment [2]; 21 µM (inactive) in experiment [3]; 28.4 µM (inactive) in [4]; 23.6 µM (inactive) in experiment [5]; 4.02 µM (inactive) in experiment [6]. Also, the GI50 was 33.7 µM (inactive) in experiment [7]; 23.6 µM (inactive) in experiment [8]; 22.4 µM (inactive) in experiment [9]; 20.9 µM (inactive) in experiment [10]; 22.9 µM (inactive) in experiment [11]; 21.8 µM (inactive) in experiment [12]. Besides, the GI50 in experiment [13] is 20.8 µM (inactive); in experiment [14], 18.2 µM (inactive); in [15], 14.7 µM (inactive); in [16], 32.8 µM (inactive); in experiment [17], 31.6 µM (inactive); in experiment [18] it was 26.7 µM (inactive). Also, the GI50 in [19] and in experiment [20] was 15.4 µM (inactive) in each case.

Consider `Cc1ccc(NC(=O)c2cc(S(=O)(=O)Nc3nc4cccnc4[nH]3)c(SSc3cc(Cl)c(C(=O)Nc4ccc(C)cc4)cc3S(=O)(=O)Nc3nc4cccnc4[nH]3)cc2Cl)cc1`, for which the GI50 in experiment [1], in experiment [2], in experiment [3], in [4], in experiment [5] and in experiment [6] was > 100 µM (inactive) each time. Besides, the GI50 in experiment [7], in experiment [8], in [9], in experiment [10], in experiment [11] and in [12] was > 100 µM (inactive) throughout. Moreover, the GI50 in experiment [13], in [14], in [15], in experiment [16], in experiment [17] and in [18] was > 100 µM (inactive) each time. Besides, the GI50 in experiment [19] and in experiment [20] was > 100 µM (inactive) each time.

As to `Cc1c(-c2ccccc2)c(C#N)c2nnn(-c3ccc([N+](=O)[O-])cc3)c(=O)n12`, the GI50 in experiment [1] was 19.9 µM (inactive); in [2] it was 8.43 µM (inactive); in experiment [3], 8.99 µM (inactive); in experiment [4], 14.1 µM (inactive); in [5] it was 10.2 µM (inactive); in experiment [6], 17.5 µM (inactive). In addition, the GI50 in [7] was 16.2 µM (inactive); in experiment [8], 8.15 µM (inactive); in experiment [9] it was 24.2 µM (inactive); in experiment [10], 10.2 µM (inactive); in [11] it was 15.9 µM (inactive); in experiment [12] it was 17.4 µM (inactive). In addition, the GI50 in experiment [13] is 12.7 µM (inactive); in [14], 18.7 µM (inactive); in [15], 22.4 µM (inactive); in [16], 14.5 µM (inactive); in [17] it was 21.9 µM (inactive); in experiment [18], 28.1 µM (inactive). Further, the GI50 in [19] was 9.93 µM (inactive); in experiment [20], 37.1 µM (inactive).

For `COC(=O)c1cc2c3c(c1)Oc1cc(C(=O)OC)cc4c1C3c1c(cc(C(=O)OC)cc1O4)O2`, the GI50 is > 76.2 µM (inactive) in [1]; 11.4 µM (inactive) in [2]; 0.802 µM (active) in experiment [3]; 15.3 µM (inactive) in [4]; 11.9 µM (inactive) in experiment [5]; 5.92 µM (inactive) in [6]. Besides, the GI50 was 10.6 µM (inactive) in experiment [7]; 17.1 µM (inactive) in experiment [8]; 8.99 µM (inactive) in experiment [9]; 3.19 µM (inactive) in experiment [10]; 0.163 µM (active) in [11]; 0.406 µM (active) in experiment [12]. For the same molecule, the GI50 in [13] was 9.18 µM (inactive); in experiment [14] it was 10.6 µM (inactive); in [15] it was 32.7 µM (inactive); in [16] it was 5.81 µM (inactive); in [17], 20 µM (inactive); in experiment [18] it was 15.3 µM (inactive). The values for the GI50 in [19] and in experiment [20] were 12.3 µM (inactive) and 16.9 µM (inactive), respectively.

For the molecule `OCCn1cnc2c(SCc3ccccc3)ncnc21`, the GI50 in experiment [1] is > 100 µM (inactive); in experiment [2], 39.1 µM (inactive); in [3], > 100 µM (inactive); in [4] it was 69.7 µM (inactive); in experiment [5] it was > 100 µM (inactive); in experiment [6], 61.1 µM (inactive). The GI50 was > 100 µM (inactive) in experiment [7]; > 100 µM (inactive) in experiment [8]; > 100 µM (inactive) in [9]; 97.9 µM (inactive) in experiment [10]; > 100 µM (inactive) in experiment [11]; > 100 µM (inactive) in experiment [12]. Moreover, the GI50 was 71.8 µM (inactive) in experiment [13]; > 100 µM (inactive) in experiment [14]; > 100 µM (inactive) in [15]; > 100 µM (inactive) in [16]; > 100 µM (inactive) in [17]; > 100 µM (inactive) in experiment [18]. For the same molecule, the GI50 in experiment [19] was 52.4 µM (inactive); in experiment [20], > 100 µM (inactive).

With `CC(C)(C)OC(=O)[C@@H]1CCC(=O)N1C1(c2ccccc2)c2ccccc2-c2ccccc21`, the GI50 in [1] is 64.7 µM (inactive); in [2] it was 23.8 µM (inactive); in experiment [3], 23.7 µM (inactive); in [4], 33.5 µM (inactive); in experiment [5], 56.4 µM (inactive); in experiment [6] it was 17.9 µM (inactive). For the same molecule, the GI50 is 67.6 µM (inactive) in experiment [7]; 16.4 µM (inactive) in experiment [8]; 33.3 µM (inactive) in [9]; 26.9 µM (inactive) in [10]; > 100 µM (inactive) in experiment [11]; 9.77 µM (inactive) in experiment [12]. Also, the GI50 in [13] is > 100 µM (inactive); in [14], 19.1 µM (inactive); in experiment [15], 39.3 µM (inactive); in experiment [16] it was 25.9 µM (inactive); in experiment [17] it was 44.9 µM (inactive); in [18] it was > 100 µM (inactive). For the same molecule, the GI50 in experiment [19] was 25.7 µM (inactive); in [20] it was 33.6 µM (inactive).

For the molecule `NC(=O)c1cc2ccc(O)cc2o/c1=N/c1ccccc1`, the GI50 in [1] was 16.3 µM (inactive); in [2], 37.5 µM (inactive); in [3], 33 µM (inactive); in experiment [4] it was 64.3 µM (inactive); in [5] it was 26.5 µM (inactive); in experiment [6], 24 µM (inactive). For the same molecule, the GI50 in experiment [7] was 31.2 µM (inactive); in experiment [8], 67.8 µM (inactive); in experiment [9], 50.8 µM (inactive); in experiment [10] it was 17.8 µM (inactive); in [11], 23.8 µM (inactive); in experiment [12], 26.2 µM (inactive). Besides, the GI50 was 51.2 µM (inactive) in [13]; 43.5 µM (inactive) in experiment [14]; 22.3 µM (inactive) in experiment [15]; 13.5 µM (inactive) in experiment [16]; 16 µM (inactive) in [17]; 27.1 µM (inactive) in [18]. Moreover, the GI50 in experiment [19] is 34.7 µM (inactive); in experiment [20], 28.5 µM (inactive).

Consider `N#Cc1nc(COCCOCc2ccccc2)oc1N`, for which the GI50 in experiment [1] was > 100 µM (inactive); in experiment [2] it was 30 µM (inactive); in [3], > 100 µM (inactive); in experiment [4], > 100 µM (inactive); in [5], > 100 µM (inactive); in experiment [6] it was > 100 µM (inactive). For the same molecule, the GI50 in experiment [7] was > 100 µM (inactive); in experiment [8], > 100 µM (inactive); in experiment [9], > 100 µM (inactive); in experiment [10], 23 µM (inactive); in experiment [11], > 100 µM (inactive); in [12], > 100 µM (inactive). Moreover, the GI50 in experiment [13], in experiment [14], in experiment [15], in experiment [16], in experiment [17] and in [18] was > 100 µM (inactive) in each case. In addition, the GI50 in [19] and in experiment [20] was > 100 µM (inactive) in each case.

Source of the values: ChEMBL document CHEMBL1201862, “PubChem BioAssay data set” (2004).
